Values of other authors, collected in patent publication US20170128595A1, “MICROBIAL GROWTH INDICATING MEDICAL DEVICES” (Indicator Systems International, Inc., priority 2013, published 2017).

Conditions: fluorescein; ionization equilibrium gives pH-dependent absorption and emission over pH 5 to 9

## fluorescein
  pKa: 6.4
